For orientation: IC50 means the point on the concentration scale where inhibition reaches its midpoint. Read a low IC50 as greater potency. Broadly, the melting point is the temperature of the solid-liquid transition.

Data on eight compounds can be found in patent US7183306B2, “Pyrazole derivatives” (Astellas Pharma Inc., priority 2002, dated 2007).

Data set [1] concerns arthritic rats (adjuvant arthritis). Kind of data set: Analgesic activity: effect on adjuvant arthritis in rats (Randall-Selitto pain threshold). The data set is classed as in vivo, Lewis rats. The note with it: Rattus norvegicus, single dose, pain threshold of left hind paw 2 hrs after administration, threshold pressure of treated vs non-treated rats, ratio of 1.5 considered effective, read-out: The coefficient of analgesic.

The target in the next data set is T1, COX-I (Homo sapiens, UniProt P23219).
T1 construct: Fresh blood was collected by syringe without anticoagulants from volunteers with consent; from tissue; host or cells: fresh human whole blood from volunteers, allowed to clot
T1 sequence (P23219 24-599): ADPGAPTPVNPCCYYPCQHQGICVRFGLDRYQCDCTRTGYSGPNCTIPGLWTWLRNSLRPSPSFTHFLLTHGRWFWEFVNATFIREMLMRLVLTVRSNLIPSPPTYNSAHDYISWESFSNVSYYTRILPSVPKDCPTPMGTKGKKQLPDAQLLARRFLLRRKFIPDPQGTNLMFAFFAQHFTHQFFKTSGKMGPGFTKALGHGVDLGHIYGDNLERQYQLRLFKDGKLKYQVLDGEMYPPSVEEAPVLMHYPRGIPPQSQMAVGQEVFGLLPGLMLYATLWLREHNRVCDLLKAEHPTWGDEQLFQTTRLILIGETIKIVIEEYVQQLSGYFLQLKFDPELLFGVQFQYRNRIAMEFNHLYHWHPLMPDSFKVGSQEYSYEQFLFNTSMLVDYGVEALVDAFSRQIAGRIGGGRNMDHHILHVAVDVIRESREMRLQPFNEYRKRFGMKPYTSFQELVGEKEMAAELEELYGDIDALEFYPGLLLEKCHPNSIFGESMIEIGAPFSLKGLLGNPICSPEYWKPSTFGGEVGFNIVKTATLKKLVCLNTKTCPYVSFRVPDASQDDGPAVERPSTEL
Kind of data set: Whole blood assay for COX-I (TXB2 production). The data set is classed as cell-based. How it is done:
[B] Inhibiting Activity Against COX-I and COX-II (Whole Blood Assay) (i) Test Metho: Whole Blood Assay for COX-I
Fresh blood was collected by syringe without anticoagulants from volunteers with consent. The subjects had no apparent inflammatory conditions and had not taken any medication for at least 7 days prior to blood collection.
500 μl Aliquots of human whole blood were immediately incubated with 2 μl of either dimethyl sulfoxide vehicle or a test compound at final concentrations for 1 hr at 37° C. to allow the blood to clot. Appropriate treatments (no incubation) were used as blanks. At the end of the incubation, 5 μl of 250 mM Indomethacin was added to stop the reaction. The blood was centrifuged at 6000×g for 5 min at 4° C. to obtain serum. A 100 μl aliquot of serum was mixed with 400 μl methanol for protein precipitation. The supernatant was obtained by centrifuging at 6000×g for 5 min at 4° C. and was assayed for TXB2 using an enzyme immunoassay kit according to the manufacturer's procedure. For a test compound, the results were expressed as percent inhibition of thromboxane B2(TXB2) production relative to control incubations containing dimethyl sulfoxide vehicle.
The data were analyzed by that a test compound at the indicated concentrations was changed log value and was applied simple linear regression. IC50 value was calculated by least squares method.

Another data set has as its target T2, COX-II (Homo sapiens, UniProt P35354).
T2 construct: incubation of the blood with 10 μl of 5 mg/ml lipopolysaccharide for 24 hrs at 37° C. for induction of COX-II; from tissue; host or cells: heparinized fresh human whole blood from volunteers, LPS-stimulated
T2 sequence (P35354 18-604): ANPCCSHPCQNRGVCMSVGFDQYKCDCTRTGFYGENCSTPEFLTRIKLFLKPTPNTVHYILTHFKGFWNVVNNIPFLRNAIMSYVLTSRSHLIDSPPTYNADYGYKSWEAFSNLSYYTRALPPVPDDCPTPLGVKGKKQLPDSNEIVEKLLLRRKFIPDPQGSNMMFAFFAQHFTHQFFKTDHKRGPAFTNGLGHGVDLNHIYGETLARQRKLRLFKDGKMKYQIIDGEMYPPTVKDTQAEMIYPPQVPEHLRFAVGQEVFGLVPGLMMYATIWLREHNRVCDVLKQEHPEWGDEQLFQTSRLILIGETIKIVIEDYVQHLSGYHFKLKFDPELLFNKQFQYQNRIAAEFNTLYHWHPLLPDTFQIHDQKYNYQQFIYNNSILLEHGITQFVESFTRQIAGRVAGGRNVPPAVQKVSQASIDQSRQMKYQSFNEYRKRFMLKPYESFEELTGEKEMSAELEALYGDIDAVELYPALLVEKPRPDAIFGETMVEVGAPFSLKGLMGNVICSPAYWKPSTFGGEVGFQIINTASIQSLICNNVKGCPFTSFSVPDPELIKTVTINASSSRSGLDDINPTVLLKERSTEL
Briefly: Whole blood assay for COX-II (LPS-induced PGE2 production). The note with it: LPS 24 hrs at 37° C., inhibition of PGE2 production. Format: cell-based. Here is the method: Whole Blood Assay for COX-II
Fresh blood was collected in heparinized tubes by syringe from volunteers with consent. The subjects had no apparent inflammatory conditions and had not taken any medication for at least 7 days prior to blood collection.
500 μl aliquots of human whole blood were incubated with either 2 μl dimethyl sulfoxide vehicle or 2 μl of a test compound at final concentrations for 15 min at 37° C. This was followed by incubation of the blood with 10 μl of 5 mg/ml lipopolysaccharide for 24 hrs at 37° C. for induction of COX-II. Appropriate PBS treatments (no LPS) were used as blanks. At the end of the incubation, the blood was centrifuged at 6000×g for 5 min at 4° C. to obtain plasma. A 100 μl aliquot of plasma was mixed with 400 μl methanol for protein precipitation. The supernatant was obtained by centrifuging at 6000×g for 5 min at 4° C. and was assayed for prostaglandin E2 (PGE2) using a radioimmunoassay kit after conversion of PGE2 to its methyl oximate derivative according to the manufacturer's procedure.
For a test compound, the results were expressed as percent inhibition of PGE2 production relative to control incubations containing dimethyl sulfoxide vehicle. The data were analyzed by that a test compound at the indicated concentrations was changed log value and was applied simple linear regression. IC50 value was calculated by least squares method.

For the compound `COc1ccc(-n2nc(C(F)(F)F)cc2-c2ccc(OCCNC(N)=O)cc2)cc1` [Example 240], the response vs control in vivo at 3.2 mg/kg in data set [1] is at least 150%. Moreover, the results for the IC50 against COX-I and at COX-II were under 10 nM and over 100 nM, respectively.
The compound `COc1ccc(-n2nc(C3CC3)cc2-c2ccc(OCCNC(N)=O)cc2)cc1` [Example 248] returned a melting point of 150.8 to 151 °C. Moreover, the response vs control in vivo at 3.2 mg/kg in data set [1] was at least 150%. The compound further yielded an IC50 against COX-I of under 10 nM. This compound also had an IC50 against COX-II of over 100 nM.
Regarding `COc1ccc(C2N=C(C(F)F)C=C2c2ccc(OCCNC(N)=O)cc2)cc1` (centres unmarked) [Example 181], the response vs control in vivo at 3.2 mg/kg in data set [1] is at least 150%. The IC50 is under 10 nM at COX-I and over 100 nM at COX-II.
The compound `COc1ccc(-n2nc(Cl)cc2-c2ccc(OCCO)cc2)cc1` [Example 23, 2-{4-[3-Chloro-1-(4-methoxyphenyl)-1H-pyrazol-5-yl]-phenoxy}ethanol] had a melting point of 114.7 to 115.5 °C. The response vs control in vivo at 3.2 mg/kg in data set [1] was over 150%. The IC50 on COX-I was under 10 nM. Also, the half-inhibitory concentration (IC50) against COX-II is over 100 nM.
On the same counts, the results for `COc1ccc(-n2nc(C(F)F)cc2-c2ccc(OCCNC(N)=O)cc2)cn1` [Example 250] are 141.5 to 142.1 °C, at least 150%, under 10 nM and over 100 nM.
The compound `COc1ccc(-n2nc(Cl)cc2-c2ccc(OCCNC(N)=O)cc2)cc1` [Example 28, N-(2-{4-[3-Chloro-1-(4-methoxyphenyl)-1H-pyrazol-5-yl]-phenoxy}ethyl)urea] registered a melting point of 144.8 to 145.4 °C. In addition, in data set [1], the response vs control in vivo at 3.2 mg/kg is over 150%. Moreover, at COX-I, the half-maximal inhibitory concentration (IC50) was under 10 nM. This compound also showed a half-maximal inhibitory concentration (IC50) against COX-II of over 100 nM.
Compound `COc1ccc(-n2nc(C(F)(F)F)cc2-c2ccc(OCCNC(C)=O)cc2)cc1` [Example 254] gave a melting point of 109.8 to 110.2 °C. Moreover, the response vs control in vivo at 3.2 mg/kg in data set [1] is at least 150%. In addition, the half-maximal inhibitory concentration (IC50) against COX-I was under 10 nM. The compound further displayed an IC50 against COX-II of over 100 nM.
Turning to `COc1ccc(-n2nc(C(F)F)cc2-c2ccc(CNS(C)(=O)=O)cc2)cc1` [Example 61, N-{4-[3-(Difluoromethyl)-1-(4-methoxyphenyl)-1H-pyrazol-5-yl]benzyl}methanesulfonamide], the response vs control in vivo at 3.2 mg/kg in data set [1] was over 150%. Also, the IC50 at COX-I was under 10 nM; at COX-II it was over 100 nM.
